Measured values published in ChEMBL document CHEMBL1158894, “A new P-glycoprotein inhibitor from the caper spurge (Euphorbia lathyris)” (J Nat Prod, 2003).

Tests used:
[1] = Inhibition of P-glycoprotein NBD2 domain assessed as quenching of intrinsic fluorescence at 60 uM; set-up: scale not given: the % may be the effect or the level left
[2] = Inhibition of P-glycoprotein NBD2 domain
[3] = target: ATP-dependent translocase ABCB1 (Homo sapiens, UniProt P08183); assay: Inhibition of P-glycoprotein-mediated daunomycin transport in human K562/R7 cells assessed as accumulation at 5 uM; format: cell-based; set-up: scale not given: the % may be the effect or the level left; settings: k562/r7, 5 µM
Chain of ATP-dependent translocase ABCB1 (P08183 whole entry): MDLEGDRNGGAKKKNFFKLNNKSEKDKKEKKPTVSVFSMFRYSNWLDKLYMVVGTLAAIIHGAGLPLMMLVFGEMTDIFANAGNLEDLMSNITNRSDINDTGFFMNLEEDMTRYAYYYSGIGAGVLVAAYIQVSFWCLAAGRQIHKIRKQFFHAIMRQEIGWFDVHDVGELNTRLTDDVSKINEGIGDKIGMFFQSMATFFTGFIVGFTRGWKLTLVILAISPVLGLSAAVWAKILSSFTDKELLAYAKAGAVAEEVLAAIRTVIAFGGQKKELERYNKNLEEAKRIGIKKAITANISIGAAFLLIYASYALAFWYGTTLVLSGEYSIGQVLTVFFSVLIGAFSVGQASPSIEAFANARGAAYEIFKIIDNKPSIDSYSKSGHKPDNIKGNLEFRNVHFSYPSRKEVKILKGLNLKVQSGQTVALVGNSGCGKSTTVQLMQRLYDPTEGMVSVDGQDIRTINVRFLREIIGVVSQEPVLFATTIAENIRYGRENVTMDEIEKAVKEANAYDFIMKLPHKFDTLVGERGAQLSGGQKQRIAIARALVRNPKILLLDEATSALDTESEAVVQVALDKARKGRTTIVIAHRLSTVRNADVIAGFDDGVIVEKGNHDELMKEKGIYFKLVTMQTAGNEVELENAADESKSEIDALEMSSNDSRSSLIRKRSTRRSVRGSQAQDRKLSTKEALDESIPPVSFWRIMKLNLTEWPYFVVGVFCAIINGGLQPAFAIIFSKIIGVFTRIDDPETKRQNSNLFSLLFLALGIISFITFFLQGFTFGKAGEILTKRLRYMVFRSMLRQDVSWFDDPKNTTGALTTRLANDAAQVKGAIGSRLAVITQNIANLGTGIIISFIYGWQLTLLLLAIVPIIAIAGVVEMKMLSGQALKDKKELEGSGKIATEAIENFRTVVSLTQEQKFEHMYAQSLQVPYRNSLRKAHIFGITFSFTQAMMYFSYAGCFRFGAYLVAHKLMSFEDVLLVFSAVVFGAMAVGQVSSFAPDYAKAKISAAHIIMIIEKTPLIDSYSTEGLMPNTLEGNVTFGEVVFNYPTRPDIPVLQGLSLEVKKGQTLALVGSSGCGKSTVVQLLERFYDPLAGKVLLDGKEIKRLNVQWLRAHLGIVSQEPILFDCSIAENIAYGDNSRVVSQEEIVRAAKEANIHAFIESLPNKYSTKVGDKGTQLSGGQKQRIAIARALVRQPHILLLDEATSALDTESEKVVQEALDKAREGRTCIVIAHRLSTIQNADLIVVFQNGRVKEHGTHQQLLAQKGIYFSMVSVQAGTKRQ

Activity [1] | Kd [2] | Activity [3] | Compound
78.5% | 16.9 µM | 95% | CCCCCC(=O)O[C@H]1[C@@H](C)C[C@]2(OC(C)=O)C(=O)/C(C)=C/[C@@H]3[C@H](CC/C(CO)=C/[C@@H]12)C3(C)C
13.8% | – | 80% | CCCCCC(=O)O[C@H]1[C@@H](C)C[C@]2(OC(C)=O)C(=O)/C(C)=C/[C@@H]3[C@H](CC/C(COC(C)=O)=C/[C@@H]12)C3(C)C
